According to US9920096B2, “Bradykinin receptor modulators and use thereof” (Sepia Pesquisa e Desenvolvimento, priority 2013, dated 2018):

Experiments:
[1] = system: Human umbilical vein endothelial cells (HUVEC); test: In vitro angiogenesis assay on Matrigel (HUVEC); format: cell-based
Experimental: The angiogenesis assay was performed according to the protocol described in Paschoalin T, et al (2007).
Human umbilical vein endothelial cells (HUVEC) were maintained in complete RPMI 1640 medium, pH 7.2, supplemented with 10 mM N-2-hydroxyethylpiperazine-N′-2-ethanesulphonic acid (HEPES), 24 mM sodium bicarbonate, 10% heat-inactivated fetal calf serum (FCS) from Gibco (Minneapolis, Minn., USA) and 40 μg/mL gentamicin sulfate (Hipolabor Farmacéutica, Sabará, MG, Brazil).
In vitro angiogenesis assay on Matrigel was performed as described previously (Paschoalin et al, 2007). Briefly, BD Matrigel Matrix (B&D Biosciences, Bedford, Mass., USA) was thawed on ice, distributed in 96-well plates (50 μL per well) and allowed to polymerize for 1 h at 37° C. HUVECs (15×10^3 cells/well) were suspended in 100 μL of RPMI medium supplemented with 2% of FCS and added to each well in the presence of peptides with possible angiogenic activity. Angiogenic stimulators and inhibitors can be incubated with the cells before adding on the Matrigel if necessary. The plates were incubated at 37° C. for 18 h and then images were captured at 8× magnification with a Sony Cyber-shot camera coupled to a light inverted microscope. The number of pro-angiogenic structures (closed rings arising from dendritic extensions of endothelial cells) was counted from 4 different wells, and the average value was determined for each sample.
When stimulated by angiogenic factors, like BK, HUVEC cells undergo the development of pro-angiogenic structures and it allows studying angiogenic or anti-angiogenic molecules. The number of pro-angiogenic structures is counted and compared to a control and to BK. Generally, peptides of the invention derived from VEGF-A were named PepA, peptides from VEGF-C were named PepC, peptides from VEGF-D were named PepD and peptides from Placental Growth Factor were named PepPl.
* p<0.05, Student's “t” test, when comparing the mean number of pro-angiogenic structures from […] different wells of HUVEC cultures to the control.

[2] = system: HUVEC cells; test: Intracellular calcium measurement in HUVEC cells (Fluo-3 fluorescence); format: cell-based, Human; conditions: for Bradykinin receptor activity indicated by calcium entry data: FIG. 5A-E, with and without B1/B2 antagonists
Experimental: The intracellular calcium measurement was performed according to the method described in Bagnaresi P et al, 2012 and Lungato L, et al., 2012.
Human umbilical vein endothelial cells were cultured in RPMI 1640 (GIBCO) containing 10% heat-inactivated fetal bovine serum (FBS), 24 mM sodium bicarbonate, […] gentamicin, 10 mM HEPES, pH 7.4 at 37° C. in a 5% CO2 humidified atmosphere. 5×10^4 cells were plated on 60 mm dishes (Costar 3260), and incubated in culture medium containing 5 μM Fluo-3 AM (Invitrogen Corporation, CA) for 40 min at 37° C. in a buffer containing the channel blocker Probenecid (40 μM), followed by 3 washes with culture medium to discard remaining extracellular probe. The cells were then placed into a culture chamber at 37° C. on the stage of a fluorescence microscope (Zeiss LSM 510 META) with excitation at 488 nm and emission at 505-530 nm. After calcium probe incubation, assays were performed with 1 uM bradykinin (BK), 10 uM PepD 2-10.
Fluorescence data were normalized as F/Fmax, where Fmax represents maximal intracellular fluorescence obtained with Ca2+ released from ER with addition of THG, a Ca2+ATPase inhibitor (Bagnaresi et al. 2012). THG blocks calcium pumps that recover cytosolic calcium from the cytoplasm. Under the action of THG the cytosolic calcium reaches its maximal concentration.
The software-based analysis allowed fluorescence imaging in the whole field or in a selected cell as a function of time (Image J 1.47h, NIH, USA). This was accomplished by defining areas of interest (e.g., an entire cell) on a given image frame and directing the software to construct a graphical representation of intensity over time (GraphPad Software 6 Prisma). Individual traces for typical 15 cells responses represent the intracellular calcium fluorescence changes in the analyzed cell population (Lungato et al. 2012).

[3] = FIG. 2 and 3, peptide at 10 μM, compared to BK 1 μM and control without peptide
[4] = FIG. 4A/4B, 1 μM and 10 μM, 24 h after initial stimulus
[5] = FIG. 5E, peptide 10 μM, in the presence of B1 receptor antagonist DesArg9-Leu8-BK

FKPSCVPLM [PepA 1-9, derived from VEGF-A]
Induction of angiogenesis in HUVEC angiogenesis assay [1, 3]: able to induce angiogenesis

FKPPCVSVYR [PepC 1-10, derived from VEGF-C]
Induction of angiogenesis in HUVEC angiogenesis assay ([1]; FIG. 4C, 0.1, 1.0 and 10 μM, 24 h after initial stimulus): able to induce angiogenesis

KPPCVSVYR [PepC 2-10, derived from VEGF-C]
Induction of angiogenesis in HUVEC angiogenesis assay [1, 4]: able to induce angiogenesis

FKPPCVNVFR [PepD 1-10, derived from VEGF-D]
Induction of angiogenesis in HUVEC angiogenesis assay [1, 3]: able to induce angiogenesis

KPPCVSVY [PepC 2-9, derived from VEGF-C]
Induction of angiogenesis in HUVEC angiogenesis assay [1, 4]: able to induce angiogenesis

FKPPCVNVF [PepD 1-9, derived from VEGF-D]
Induction of angiogenesis in HUVEC angiogenesis assay [1, 3]: able to induce angiogenesis

KPPCVNVFR [PepD 2-10, derived from VEGF-D]
Effect on HUVEC angiogenesis assay (number of pro-angiogenic structures) ([1]; FIG. 1, tested at 1 μM, 10 μM and 50 μM, effect at 1 and 10 μM, compared to control): pro-angiogenic effect | Induction of angiogenesis in HUVEC angiogenesis assay [1, 3]: able to induce angiogenesis | Bradykinin receptor activity indicated by calcium entry data ([2]; peptide 10 μM): B2 agonist | Bradykinin receptor activity indicated by calcium entry data ([2]; peptide 10 μM, listed as PepD2-10): B1 bradykinin receptor activation | Cytoplasmic calcium in HUVEC (Fluo-3 fluorescence) ([2]; FIG. 5B, peptide 10 μM): induces an increase of cytoplasmatic calcium | Calcium entry induced by the peptide after previous addition of B2 receptor antagonist HOE140 ([2]; FIG. 5C, HOE 140 10 μM for 10 min before peptide 10 μM): does not block calcium entry but clearly shows a disruption in the pattern of calcium increase | Calcium entry induced by the peptide after previous addition of B1 receptor antagonist DesArg9-Leu8-BK ([2]; FIG. 5D, DesArg9-Leu8-BK 10 μM for 10 min before peptide 10 μM): completely blocks the effect of PepD 2-10

FSPSCVSLLR [PepPl 1-10, derived from Placental Growth Factor]
Cell fluorescence due to calcium entry in the cytoplasm of HUVEC [2, 5]: induces an increase in cell fluorescence | Duration of transient fluorescence increase (cytoplasmic calcium increase) [2, 5]: around 5 minutes

KPSCVPLM [PepA 2-9, derived from VEGF-A]
Induction of angiogenesis in HUVEC angiogenesis assay [1, 3]: able to induce angiogenesis
